Test results taken from BindingDB's records for doi:10.1016/s0960-894x(99)00097-9 (University of Minnesota, 1999).

Molecular target: Lactoylglutathione lyase (Saccharomyces cerevisiae)
Assay: Ability to inhibit yeast glyoxalase I enzyme in 0.05 M phosphate buffer, pH 6.6, 30 degree C

NC(CNC(=O)NC(CSCc1ccc(Br)cc1)C(=O)NCC(=O)O)C(=O)O (stereo unspecified) [2-Amino-3-{3-[2-(4-bromo-benzylsulfanyl)-1-(carboxymethyl-carbamoyl)-ethyl]-ureido}-propionic acid]
Ki: 15.5 µM
